How the values were obtained:
[1] = test system: parent elite stiff stalk inbred corn; assay: Preemergence herbicide application in greenhouse: fresh shoot weight and visual injury; assay type: in vivo; details: preemergence, 200 g/ha, mean of four replications; for pest or weed control at 200 g/ha: Zea mays, pre-emergence, 672 h, 0% no injury, 100% plant death, read-out: % Visual Injury; for Fresh Weight: fresh shoots weighed 4 weeks after treatment, untreated 36.7 g
[2] = test system: Heterozygous GAT-HRA corn; assay: as above; assay type: in vivo; details: preemergence, 200 g/ha, mean of four replications; for pest or weed control at 200 g/ha: Zea mays, pre-emergence, 672 h, 0% no injury, 100% plant death, read-out: % Visual Injury; for Fresh Weight: fresh shoots weighed 4 weeks after treatment, untreated 47.0 g
[3] = test system: parent elite stiff stalk inbred corn; assay: Postemergence herbicide application in greenhouse: fresh shoot weight and visual injury; assay type: in vivo; details: postemergence, 200 g/ha (glyphosate 3472 g ae/ha, glufosinate ammonium 1870 g/ha), mean of four replications; for pest or weed control at 200 g/ha: Zea mays, post-emergence, 0% no injury, 100% plant death, read-out: % Visual Injury; for Fresh Weight: weighed 2 weeks after treatment, untreated 76.4 g
[4] = test system: Heterozygous GAT-HRA corn; assay: as above; assay type: in vivo; details: postemergence, 200 g/ha (glyphosate 3472 g ae/ha, glufosinate ammonium 1870 g/ha), mean of four replications; for pest or weed control at 200 g/ha: Zea mays, post-emergence, 0% no injury, 100% plant death, read-out: % Visual Injury; for Fresh Weight: weighed 2 weeks after treatment, untreated 98.8 g
[5] = test system: GAT-HRA maize; assay: Evaluation of herbicide tolerance, spray at V2 stage, injury symptoms after 10-14 days; assay type: in vivo; details: postemergence; tribenuron (Express) 200, chlorimuron (Classic) 200, imazapyr (Arsenal) 200, metsulfuron-methyl (Ally) 35 g ai/ha
Description: GAT-HRA maize plants were evaluated for tolerance to glyphosate and other herbicides. One protocol used in this evaluation was as follows. At the V2 stage (Ritchie and Hanway (1982), “How a corn plant develops” Spec. Rep. 48. (Coop. Ext. Ser., Iowa State Univ., Ames, Iowa)), plant heights were measured and herbicides were applied by spray application. Ten to fourteen days after the spray application, the transgenic plants were evaluated for injury symptoms and measured for plant height again in order to determine plant growth rates.
Plants were then evaluated at various times after treatment, such as 10 or 14 days after treatment.

[6] = test system: control maize; assay: as above; assay type: in vivo; details: postemergence; tribenuron (Express) 200, chlorimuron (Classic) 200, imazapyr (Arsenal) 200, metsulfuron-methyl (Ally) 35 g ai/ha
Description: At the V2 stage (Ritchie and Hanway (1982), “How a corn plant develops” Spec. Rep. 48. (Coop. Ext. Ser., Iowa State Univ., Ames, Iowa)), plant heights were measured and herbicides were applied by spray application. Ten to fourteen days after the spray application, the transgenic plants were evaluated for injury symptoms and measured for plant height again in order to determine plant growth rates.

[7] = test system: GAT-HRA soybeans; assay: Postemergence herbicide treatment of soybeans in greenhouse, visual injury; assay type: in vivo, soybean; details: postemergence, glyphosate 8960, tribenuron-methyl 35, rimsulfuron 35 g/ha
Description: (§1) Young regenerated transgenic plants were sprayed with 1× glyphosate (1× rate of glyphosate is 1120 g/ha of glyphosate isopropylamine) to cull segregants. Four replications were performed for each treatment. Plants were then treated with various herbicides, including glyphosate and ALS-inhibitor herbicides.
(§2) Six soybean seeds from each variety to be assayed were planted 1 cm deep in 5.5 (13.97 cm) inch square plastic container of a synthetic growth medium. […] When possible, containers were thinned to two uniform plants. Non-transgenic lines were thinned to two uniform plants per container.
(§3) Results are expressed below in Table 11 as the mean of four replications.

[8] = test system: Wild Type soybeans (Jack); assay: as above; assay type: in vivo, soybean; details: postemergence, glyphosate 8960, tribenuron-methyl 35, rimsulfuron 35 g/ha
Description: as §1, §2, §3

[9] = test system: STS ® soybeans; assay: as above; assay type: in vivo, soybean
From the text: When possible, containers were thinned to two uniform plants.

[10] = test system: Untransformed Coker 312 cotton; assay: Greenhouse over the top herbicide spray of cotton; assay type: in vivo, Gossypium hirsutum; details: glyphosate 1.5 lb ae/acre, 2 weeks after application; rimsulfuron 16 g active ingredient/hectare without glyphosate
From the text: Transformed cotton plants were rooted and then transferred to soil for further growth. Plants were then subjected to herbicide spray treatments in a greenhouse. […] Untransformed Coker 312 control plants were dead 2 weeks after glyphosate application. […] Plants transformed with both GAT and HRA were further subjected to an “over the top” application of the sulfonylurea herbicide rimsulfuron at a rate of 16 g active ingredient/hectare. […] In further experiments 32 g ai/ha rimsulfuron were applied to the cotton.

## COC(=O)c1ccccc1S(=O)(=O)NC(=O)Nc1nc(C)nc(OC)n1 [Metsulfuron-methyl]
[1]
  pest or weed control at 200 g/ha: 100%
  Fresh Weight: 0.0 g
[2]
  pest or weed control at 200 g/ha: 0%
  Fresh Weight: 41.1 g
[3]
  pest or weed control at 200 g/ha: 100%
  Fresh Weight: 1.9 g
[4]
  pest or weed control at 200 g/ha: 14%
  Fresh Weight: 75.5 g
[5]
  damage from the treatment: no significant damage
[6]
  damage from the treatment: severely damaged or killed

## CCS(=O)(=O)c1cccnc1S(=O)(=O)NC(=O)Nc1nc(OC)cc(OC)n1 [Rimsulfuron]
[1]
  pest or weed control at 200 g/ha: 74%
  Fresh Weight: 29.8 g
[2]
  pest or weed control at 200 g/ha: 0%
  Fresh Weight: 45.3 g
[3]
  pest or weed control at 200 g/ha: 91%
  Fresh Weight: 12.6 g
[4]
  pest or weed control at 200 g/ha: 10%
  Fresh Weight: 99.2 g
[7]; event 59, mean
  % Visual Injury: 87%
[7]; event 59 line 21
  % Visual Injury: 88%
[7]; event 59 line 28
  % Visual Injury: 86%
[7]; event 60, mean
  % Visual Injury: 83%
[7]; event 60 line 07
  % Visual Injury: 84%
[7]; event 60 line 11
  % Visual Injury: 83%
[7]; event 60 line 22
  % Visual Injury: 76%
[7]; event 60 line 35
  % Visual Injury: 85%
[7]; event 60 line 41
  % Visual Injury: 80%
[7]; event 60 line 46
  % Visual Injury: 78%
[7]; event 60 line 70
  % Visual Injury: 80%
[7]; event 60 line 75
  % Visual Injury: 86%
[7]; event 60 line 77
  % Visual Injury: 90%
[7]; event 60 line 79
  % Visual Injury: 86%
[7]; event 60 line 82
  % Visual Injury: 90%
[7]; event 60 line 84
  % Visual Injury: 83%
[7]; event 61, mean
  % Visual Injury: 82%
[7]; event 61 line 02
  % Visual Injury: 80%
[7]; event 61 line 02B
  % Visual Injury: 70%
[7]; event 61 line 05
  % Visual Injury: 78%
[7]; event 61 line 14
  % Visual Injury: 90%
[7]; event 61 line 18
  % Visual Injury: 89%
[7]; event 61 line 24
  % Visual Injury: 90%
[7]; event 61 line 33
  % Visual Injury: 95%
[7]; event 61 line 34
  % Visual Injury: 90%
[7]; event 61 line 47
  % Visual Injury: 78%
[7]; event 61 line 49
  % Visual Injury: 84%
[7]; event 61 line 51
  % Visual Injury: 83%
[7]; event 61 line 60
  % Visual Injury: 73%
[7]; event 61 line 62
  % Visual Injury: 71%
[7]; event 61 line 99
  % Visual Injury: 79%
[7]; event 64, mean
  % Visual Injury: 73%
[7]; event 64 line 41
  % Visual Injury: 73%
[7]; event 64 line 47
  % Visual Injury: 73%
[8]; Wild Type line 82
  % Visual Injury: 97%
[8]; Wild Type line Jack
  % Visual Injury: 97%
[8]; Wild Type, mean
  % Visual Injury: 97%
[9]; STS ® line 25, glyphosate 8960, tribenuron-methyl 35, rimsulfuron 35 g/ha
  % Visual Injury: 97%
[9]; STS ® line 46, glyphosate 8960, tribenuron-methyl 35, rimsulfuron 35 g/ha
  % Visual Injury: 97%
[9]; STS ®, mean, glyphosate 8960, tribenuron-methyl 35, rimsulfuron 35 g/ha
  % Visual Injury: 97%
[10]
  damage to untransformed control plants: severe damage
